Laboratory results from PMC10247784, “Physiological activation of human and mouse bitter taste receptors by bile acids” (Communications Biology, 2023).
“And” between values parts separate entries of the source, which are not always exact repeats. Identical values can stand only once.

Molecular target: T1, human TAS2R4 (Homo sapiens, UniProt Q9NYW5)
T1 construct: expressed in transfected cells; host or cells: HEK293T-Gα16gust44
T1 sequence (Q9NYW5 1-299): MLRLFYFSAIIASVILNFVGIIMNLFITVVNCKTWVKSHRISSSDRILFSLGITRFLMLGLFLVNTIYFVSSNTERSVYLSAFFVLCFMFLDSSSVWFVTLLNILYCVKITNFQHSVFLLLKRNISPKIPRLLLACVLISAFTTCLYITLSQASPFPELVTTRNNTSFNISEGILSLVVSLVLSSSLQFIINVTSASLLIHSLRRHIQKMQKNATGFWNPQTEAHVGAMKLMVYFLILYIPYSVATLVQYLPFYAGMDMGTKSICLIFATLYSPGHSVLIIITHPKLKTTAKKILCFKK
Test: Calcium imaging assay (FLIPR), HEK293T-Gα16gust44 cells transfected with human TAS2R4
Assay type: cell-based
Method in brief: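 Bile acids from DMSO stocks are applied to dye-loaded cells one day after transient receptor transfection, and calcium-dependent fluorescence is recorded. Maximum signal is standardized to basal and normalized to buffer-only wells, with empty-vector signal subtracted.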

## C[C@H](CCC(=O)O)[C@H]1CC[C@H]2[C@@H]3[C@H](O)C[C@@H]4C[C@H](O)CC[C@]4(C)[C@H]3C[C@H](O)[C@]12C [Cholic Acid, cholic acid]
TAS2R4, bile acids, mean
  Efficacy = maximal amplitude (ΔF/F): 0.1231
TAS2R4, bile acids, single replicates, listed as CA
  Efficacy (maximal amplitude ΔF/F), individual data points: 0.1201 and 0.127 and 0.1223
Time (s) 0
  RLU, fluorescence trace: 0 RLU
Time (s) 2
  RLU, fluorescence trace: 19.1006 RLU
Time (s) 4
  RLU, fluorescence trace: 0.3953 RLU
Time (s) 6
  RLU, fluorescence trace: 2.918 RLU
Time (s) 8
  RLU, fluorescence trace: 21.2897 RLU
Time (s) 12
  RLU, fluorescence trace: 0.674 RLU
Time (s) 14
  RLU, fluorescence trace: -1.277 RLU
Time (s) 16
  RLU, fluorescence trace: 19.6047 RLU
Time (s) 18
  RLU, fluorescence trace: 0.9534 RLU
Time (s) 18.766 (TCA, TLCA: 18.782)
  RLU, fluorescence trace: -8.812 RLU
Time (s) 20.781 (TCA, TLCA: 20.782)
  RLU, fluorescence trace: -52.2052 RLU
Time (s) 22.781 (TCA, TLCA: 22.782)
  RLU, fluorescence trace: 12.9621 RLU
Time (s) 24.781 (TCA, TLCA: 24.782)
  RLU, fluorescence trace: 16.2873 RLU
Time (s) 26.781 (TCA, TLCA: 26.782)
  RLU, fluorescence trace: 53.8077 RLU
Time (s) 28.781 (TCA, TLCA: 28.782)
  RLU, fluorescence trace: 116.69 RLU
Time (s) 30.781 (TCA, TLCA: 30.782)
  RLU, fluorescence trace: 202.767 RLU
Time (s) 32.781 (TCA, TLCA: 32.782)
  RLU, fluorescence trace: 286.976 RLU
Time (s) 34.781 (TCA, TLCA: 34.782)
  RLU, fluorescence trace: 331.157 RLU
Time (s) 36.781 (TCA, TLCA: 36.782)
  RLU, fluorescence trace: 398.002 RLU
Time (s) 38.781 (TCA, TLCA: 38.782)
  RLU, fluorescence trace: 447.116 RLU
Time (s) 40.781 (TCA, TLCA: 40.782)
  RLU, fluorescence trace: 484.385 RLU
Time (s) 42.781 (TCA, TLCA: 42.782)
  RLU, fluorescence trace: 513.813 RLU
Time (s) 44.781 (TCA, TLCA: 44.782)
  RLU, fluorescence trace: 571.4 RLU
Time (s) 46.781 (TCA, TLCA: 46.782)
  RLU, fluorescence trace: 576.681 RLU
Time (s) 48.781 (TCA, TLCA: 48.782)
  RLU, fluorescence trace: 621.92 RLU
Time (s) 50.781 (TCA, TLCA: 50.782)
  RLU, fluorescence trace: 628.153 RLU
Time (s) 52.781 (TCA, TLCA: 52.782)
  RLU, fluorescence trace: 608.216 RLU
Time (s) 54.781 (TCA, TLCA: 54.782)
  RLU, fluorescence trace: 673.422 RLU
Time (s) 56.781 (TCA, TLCA: 56.782)
  RLU, fluorescence trace: 649.648 RLU
Time (s) 58.781 (TCA, TLCA: 58.782)
  RLU, fluorescence trace: 665.81 RLU
Time (s) 60.781 (TCA, TLCA: 60.782)
  RLU, fluorescence trace: 679.484 RLU
Time (s) 62.781 (TCA, TLCA: 62.782)
  RLU, fluorescence trace: 679.42 RLU
Time (s) 64.781 (TCA, TLCA: 64.782)
  RLU, fluorescence trace: 662.359 RLU
Time (s) 66.781 (TCA, TLCA: 66.782)
  RLU, fluorescence trace: 681.18 RLU
Time (s) 68.781 (TCA, TLCA: 68.782)
  RLU, fluorescence trace: 661.786 RLU
Time (s) 70.781 (TCA, TLCA: 70.782)
  RLU, fluorescence trace: 663.821 RLU
Time (s) 72.781 (TCA, TLCA: 72.782)
  RLU, fluorescence trace: 677.656 RLU
Time (s) 74.781 (TCA, TLCA: 74.782)
  RLU, fluorescence trace: 687.298 RLU
Time (s) 76.781 (TCA, TLCA: 76.782)
  RLU, fluorescence trace: 685.082 RLU
Time (s) 78.781 (TCA, TLCA: 78.782)
  RLU, fluorescence trace: 661.065 RLU
Time (s) 80.781 (TCA, TLCA: 80.782)
  RLU, fluorescence trace: 659.476 RLU
Time (s) 82.781 (TCA, TLCA: 82.782)
  RLU, fluorescence trace: 652.14 RLU
Time (s) 84.781 (TCA, TLCA: 84.782)
  RLU, fluorescence trace: 621.974 RLU
Time (s) 86.781 (TCA, TLCA: 86.782)
  RLU, fluorescence trace: 644.971 RLU
Time (s) 88.781 (TCA, TLCA: 88.782)
  RLU, fluorescence trace: 652.467 RLU
Time (s) 90.781 (TCA, TLCA: 90.782)
  RLU, fluorescence trace: 634.908 RLU
Time (s) 92.781 (TCA, TLCA: 92.782)
  RLU, fluorescence trace: 616.215 RLU
Time (s) 94.781 (TCA, TLCA: 94.782)
  RLU, fluorescence trace: 623.143 RLU
Time (s) 96.781 (TCA, TLCA: 96.782)
  RLU, fluorescence trace: 577.048 RLU
Time (s) 98.781 (TCA, TLCA: 98.782)
  RLU, fluorescence trace: 590.83 RLU
Time (s) 100.781 (TCA, TLCA: 100.782)
  RLU, fluorescence trace: 594.46 RLU
Time (s) 102.781 (TCA, TLCA: 102.782)
  RLU, fluorescence trace: 570.853 RLU
Time (s) 104.781 (TCA, TLCA: 104.782)
  RLU, fluorescence trace: 535.832 RLU
Time (s) 106.781 (TCA, TLCA: 106.782)
  RLU, fluorescence trace: 576.036 RLU
Time (s) 108.781 (TCA, TLCA: 108.782)
  RLU, fluorescence trace: 552.984 RLU
Time (s) 110.781 (TCA, TLCA: 110.782)
  RLU, fluorescence trace: 539.61 RLU
Time (s) 112.781 (TCA, TLCA: 112.782)
  RLU, fluorescence trace: 529.912 RLU
Time (s) 114.781 (TCA, TLCA: 114.782)
  RLU, fluorescence trace: 525.649 RLU
Time (s) 116.781 (TCA, TLCA: 116.782)
  RLU, fluorescence trace: 514.781 RLU
Time (s) 118.781 (TCA, TLCA: 118.782)
  RLU, fluorescence trace: 515.049 RLU
Time (s) 120.781 (TCA, TLCA: 120.782)
  RLU, fluorescence trace: 488.175 RLU
Time (s) 122.781 (TCA, TLCA: 122.782)
  RLU, fluorescence trace: 489.541 RLU
Time (s) 124.781 (TCA, TLCA: 124.782)
  RLU, fluorescence trace: 470.085 RLU
Time (s) 126.781 (TCA, TLCA: 126.782)
  RLU, fluorescence trace: 464.513 RLU
Time (s) 128.781 (TCA, TLCA: 128.782)
  RLU, fluorescence trace: 464.071 RLU
Time (s) 130.781 (TCA, TLCA: 130.782)
  RLU, fluorescence trace: 466.285 RLU
Time (s) 132.781 (TCA, TLCA: 132.782)
  RLU, fluorescence trace: 460.578 RLU
Time (s) 134.781 (TCA, TLCA: 134.782)
  RLU, fluorescence trace: 427.673 RLU
Time (s) 136.781 (TCA, TLCA: 136.782)
  RLU, fluorescence trace: 445.361 RLU
Time (s) 137.547
  RLU, fluorescence trace: 436.003 RLU
Time (s) 143.547
  RLU, fluorescence trace: 408.618 RLU
Time (s) 149.547
  RLU, fluorescence trace: 386.336 RLU
Time (s) 155.547
  RLU, fluorescence trace: 351.767 RLU
Time (s) 161.547
  RLU, fluorescence trace: 346.602 RLU
Time (s) 167.547
  RLU, fluorescence trace: 335.172 RLU
Time (s) 173.547
  RLU, fluorescence trace: 264.873 RLU
Time (s) 179.547
  RLU, fluorescence trace: 265.3 RLU
Time (s) 185.547
  RLU, fluorescence trace: 242.782 RLU
Time (s) 191.547
  RLU, fluorescence trace: 246.932 RLU
Time (s) 197.547
  RLU, fluorescence trace: 258.506 RLU
Time (s) 203.547
  RLU, fluorescence trace: 232.756 RLU
Time (s) 209.547
  RLU, fluorescence trace: 219.78 RLU
Time (s) 215.547
  RLU, fluorescence trace: 251.011 RLU
Time (s) 221.547
  RLU, fluorescence trace: 260.591 RLU
Time (s) 227.547
  RLU, fluorescence trace: 271.039 RLU
Time (s) 233.547
  RLU, fluorescence trace: 291.66 RLU
Time (s) 239.547
  RLU, fluorescence trace: 269.732 RLU
Time (s) 245.547
  RLU, fluorescence trace: 266.514 RLU
Time (s) 293.547
  RLU, fluorescence trace: 239.384 RLU
Time (s) 299.547
  RLU, fluorescence trace: 250.874 RLU
Time (s) 305.547
  RLU, fluorescence trace: 250.223 RLU
Time (s) 311.547
  RLU, fluorescence trace: 248.529 RLU
Time (s) 317.547
  RLU, fluorescence trace: 268.105 RLU
Time (s) 323.547
  RLU, fluorescence trace: 278.662 RLU
Time (s) 329.547
  RLU, fluorescence trace: 259.586 RLU
Time (s) 335.547
  RLU, fluorescence trace: 285.984 RLU
Time (s) 341.547
  RLU, fluorescence trace: 283.853 RLU
Time (s) 347.547
  RLU, fluorescence trace: 275.523 RLU
Time (s) 353.547
  RLU, fluorescence trace: 309.056 RLU
Time (s) 359.547
  RLU, fluorescence trace: 277.364 RLU
Lowest concentration with significantly increased fluorescence vs empty vector (p < 0.01)
  Activation threshold concentration TAS2R4: 30 µM
